Measurements taken from paper PMC10354055, “An optimized Nurr1 agonist provides disease-modifying effects in Parkinson’s disease models” (Nature Communications, 2023).
Several values for one entry are separate records, joined by “and”; a condition that tells them apart may be missing. Equal entries are not always repeated.

Tests used:
HeLa cells [1] = assay: Autophagolysosome (APL) formation assay, mRFP-GFP-LC3, HeLa cells; format: cell-based; details: EBSS, BafA1 10 nM, CQ 20 µM, 4A7C-301 1 µM
Experimental: Nurr1 transactivity was normalized to β-galactosidase activity.
(§1) HeLa and N27-A cells were transfected with tandem mRFP-GFP-LC3 (Addgene) plasmid using Lipofectamine 2000 (Invitrogen) in 24-well plates. After 24 h, cells were incubated in starvation medium (Earle’s Balanced Salt Solution, EBSS; Lonza) containing bafilomycin A1 (BafA1, 10 nM), CQ (20 µM), or 4A7C-301 (1 µM) for 6 h and then fixed with 4% formaldehyde for fluorescence detection. Images were taken using a KEYENCE microscope and red (mRFP) LC3 dots and yellow (mRFP+GFP) LC3 dots were counted from three independent wells for each treatment group. 10 cells were randomly selected and counted from each well and a total of 30 cells were analyzed for each treatment group in both HeLa and N27-A cells.

N27-A cells [2] = assay: Autophagolysosome (APL) formation assay, mRFP-GFP-LC3, N27-A cells; format: cell-based, rat; details: Figure 3b; mRFP-GFP-LC3; individual cells (30 per treatment)
Experimental: as §1

HeLa cells [3] = assay: Lysosomal pH detection, LysoSensor, HeLa cells; format: cell-based
Experimental: (§2) Lysosomal pH was detected as previously described. Briefly, after incubation in EBSS containing BafA1 (10 nM), CQ (20 µM), or 4A7C-301 (1 µM) for 6 h, HeLa and N27-A cells were treated with LysoSensor™ Yellow/Blue DND-160 (5 µM; Life Technology) for 45 min, followed by 2 washes in HEPES buffer (Gibco). Fluorescence images at excitation/emission wavelengths of 360/460 nm and 470/525 nm were taken immediately using a 400 nm dichroic mirror (KEYENCE). The ratio of fluorescence intensities (F360/470) were measured and calculated manually using ImageJ for each cell. The average pH from measuring 5 cells from each of three wells for each treatment group in both HeLa and N27-A cells was calculated by fitting the F360/470 values to a plotted pH calibration curve with KCl/NaCl buffered from pH 3.5 to 7.0 using GraphPad Prism (Version 8.0.2).

N27-A cells [4] = assay: Lysosomal pH detection, LysoSensor, N27-A cells; format: cell-based, rat
Experimental: as §2

HeLa cells [5] = assay: Autophagic flux, Western blot LC3B and p62, HeLa cells; format: cell-based; details: for Relative LC3B-II experession (normalized to β-actin): Supplementary Figure S7f; for Relative p62 experession (normalized to β-actin): Supplementary Figure S7g
Experimental: (§3) Experiments were confirmed by duplicate measurements of the same sample. Quantification of immunoreactive bands was performed using ImageJ software (NIH, Bethesda, MD, USA) and expressed as a relative ratio against β-actin.
(§4) The band intensities were quantified using ImageJ and normalized against β-actin.

N27-A cells [6] = assay: Autophagic flux, Western blot LC3B and p62, N27-A cells; format: cell-based, rat; details: individual replicates
Experimental: as §3, §4

CO/C1=C\C(C)=C\[C@@H](C)[C@@H](O)[C@@H](C)C/C(C)=C/C=C/[C@H](OC)[C@@H]([C@@H](C)[C@@H](O)[C@H](C)[C@@]2(O)C[C@@H](O)[C@H](C)[C@@H](C(C)C)O2)OC1=O [BafA1, bafilomycin A1]
APL formation / autophagy (in words) (HeLa cells [1]): completely inhibited | LC3 dots/cell, Red LC3 dots (N27-A cells [2]): 1 dots/cell (14×) and 2 dots/cell (6×) and 0 dots/cell (8×) and 5 dots/cell and 3 dots/cell | LC3 dots/cell, Yellow LC3 dots (N27-A cells [2]): 28 dots/cell (2×) and 29 dots/cell (3×) and 21 dots/cell and 37 dots/cell (2×) and 20 dots/cell and 41 dots/cell (2×) and 27 dots/cell (2×) and 31 dots/cell (6×) and 18 dots/cell and 32 dots/cell and 40 dots/cell (2×) and 38 dots/cell and 33 dots/cell and 36 dots/cell and 24 dots/cell and 22 dots/cell and 30 dots/cell and 23 dots/cell | lysosomal pH (in words) (HeLa cells [3]; HeLa, BafA1 10 nM, CQ 20 µM, 4A7C-301 1 µM): significantly increased | Lysosomal pH (HeLa cells [3]; Supplementary Figure S7d, individual replicates): 6.632 and 6.371 and 6.762 and 6.208 and 6.436 and 6.697 and 6.241 and 7.055 and 6.469 and 6.827 and 6.045 | Lysosomal pH (N27-A cells [4]; Figure 3d, individual replicates): 6.143 and 6.404 and 6.371 and 6.241 and 6.729 and 6.827 and 6.567 and 6.11 and 6.469 and 6.925 and 6.664 and 6.078 and 6.045 | lysosomal pH (in words) (N27-A cells [4]; N27-A, BafA1 10 nM, CQ 20 µM, 4A7C-301 1 µM): significantly increased | autophagic flux (in words) (HeLa cells [5]; HeLa, LC3B-II and p62): failed to terminate | Relative LC3B-II experession (normalized to β-actin) (HeLa cells [5]; time 0h): 0.339 and 0.384 and 0.423 | Relative LC3B-II experession (normalized to β-actin) (HeLa cells [5]; time 0.5h): 0.689 and 0.867 and 0.926 | Relative LC3B-II experession (normalized to β-actin) (HeLa cells [5]; time 1h): 0.885 and 1.051 and 1.126 | Relative LC3B-II experession (normalized to β-actin) (HeLa cells [5]; time 2h): 0.981 and 1.172 and 1.156 | Relative LC3B-II experession (normalized to β-actin) (HeLa cells [5]; time 4h): 1.098 and 1.172 and 1.288 | Relative p62 experession (normalized to β-actin) (HeLa cells [5]; time 0h): 0.909 and 0.809 and 0.904 | Relative p62 experession (normalized to β-actin) (HeLa cells [5]; time 0.5h): 0.781 and 0.847 and 0.974 | Relative p62 experession (normalized to β-actin) (HeLa cells [5]; time 1h): 0.754 and 0.822 and 0.940 | Relative p62 experession (normalized to β-actin) (HeLa cells [5]; time 2h): 0.804 and 0.850 and 0.987 | Relative p62 experession (normalized to β-actin) (HeLa cells [5]; time 4h): 0.978 and 0.992 and 1.169 | Relative LC3B-II experession (normalized to β-actin) (N27-A cells [6]; Figure 3f, w/ MPP+, 0h): 0.733 and 0.699 and 0.753 | Relative LC3B-II experession (normalized to β-actin) (N27-A cells [6]; Figure 3f, w/ MPP+, 4h): 1.710 and 1.577 and 1.762 | Relative LC3B-II experession (normalized to β-actin) (N27-A cells [6]; Figure 3f, w/o MPP+, 0h): 0.546 and 0.525 and 0.431 | Relative LC3B-II experession (normalized to β-actin) (N27-A cells [6]; Figure 3f, w/o MPP+, 4h): 1.603 and 1.576 and 1.411 | Relative LC3B-II experession (normalized to β-actin) (N27-A cells [6]; Figure 3g, w/ MPP+, 0h): 1.449 and 1.354 and 1.694 | Relative LC3B-II experession (normalized to β-actin) (N27-A cells [6]; Figure 3g, w/ MPP+, 4h): 1.439 and 1.341 and 1.659 | Relative LC3B-II experession (normalized to β-actin) (N27-A cells [6]; Figure 3g, w/o MPP+, 0h): 1.447 and 1.262 and 1.249 | Relative LC3B-II experession (normalized to β-actin) (N27-A cells [6]; Figure 3g, w/o MPP+, 4h): 1.807 and 1.586 and 1.554
